The text below walks through data of US11186599B2, “Phosphonamide ester compound, salt thereof, related crystal form thereof, preparation method therefor and use thereof” (SICHUAN KELUN-BIOTECH BIOPHARMACEUTICAL CO., LTD., priority 2018, dated 2021).

Each structure is given as a SMILES string. In brackets after ≈: the same amount, converted by molar mass. Like-named read-outs stand apart in the source and are kept apart here.

A short description of data set [1]: Physicochemical stability test, placed open at 40° C./75% RH. Conditions: placed open 14 days at 40° C./75% RH. The procedure:
An appropriate amount of crystalline form A of the fumarate salt of the compound of Formula (I) of the invention was detected for the physicochemical stability thereof under the following conditions: placed open for 14 days at 40° C./75% RH. XRPD and LC-MS analysis were then carried out to determine the crystalline form and the change in purity.

Data set [2] can be described thus: Pharmacokinetic experiment in beagle dogs. It is filed as in vivo. As to conditions: 2.5 mg/kg, capsules intragastrically. The procedure: The crystalline forms A and C of the fumarate salt of the compound of Formula (I) were encapsulated into capsules and administered intragastrically to beagle dogs at a dose of 2.5 mg/kg. Venous blood was collected at different time points after administration and separately subjected to the detection of the original free base form of the compound of Formula (I) and its metabolite tenofovir (TFV).

Data set [3] in a line: Solubility determination (shaking 24 hours, HPLC). It is filed as physicochemical. Conditions: for solubility at 24 h: thermodynamic from solid, shaking 24 hours. On the procedure:
An aqueous solution of pH 2.0 (the pH was adjusted with an appropriate amount of hydrochloric acid), an aqueous solution of pH 7.4 (the pH was adjusted with 10 mM potassium dihydrogen phosphate and an appropriate amount of NaOH), and a fasted-state simulated intestinal fluid (FaSSIF) were prepared as solvents, respectively. Several portions of the sample for test, 1 mg each, were weighed and dissolved in different solvents, 1 mL each. The solutions were thoroughly shaked, and then subjected to ultrasonic operation for 5 minutes. […] After shaking in a constant temperature shaking water bath for 24 hours, filtration was carried out through a 0.45 uM aqueous filter membrane, followed by HPLC analysis for determination of the solubility.

Data set [4] can be described thus: Hygroscopicity test by dynamic vapor sorption (DVS). It is filed as physicochemical. As to conditions: 25° C. On the procedure: The hygroscopicity of crystalline forms A and B of the fumarate salt was measured by dynamic vapor sorption (DVS) using a DVS Intrinsic (SMS) at 25° C. in a cycle-DMDT mode.
The conditions of data set [5]: phase III clinical trial, cited from earlier work.
[6] abbreviates: beagle, dog, venous blood, po, analyte: free base of the compound of Formula (I).
Where [7] appears, read: analyte: free base of the compound of Formula (I), listed as crystalline form A of the fumarate salt.
[8] abbreviates: analyte: free base of the compound of Formula (I), listed as crystalline form C of the fumarate salt.

As to `C[C@H](Cn1cnc2c(N)ncnc21)OC[P@@](=O)(NCCOCc1ccccc1)Oc1ccccc1` [listing 1 of 3 here], in data set [1] (LC-MS), the “Relative purity after storage” value is “up to 99%”. Moreover, in data set [1] (XRPD and LC-MS), the “Change after storage (crystalline form and purity, in words)” value is recorded as “without significant change”. In addition, the total exposure AUC(0-inf) in data set [2] (setting [6]) came to 66.7 ng·h/mL. The AUC(0-t) in data set [2] (setting [6]) came to 66.2 ng·h/mL. This molecule had a half-life in data set [2] (setting [6]) of 33 min. The Cmax in data set [2] (beagle, dog, venous blood, po, analyte: free base of the compound of Formula (I), read-out: Cmax) turned out to be 67.4 ng/mL. Further, the “Conversion to TFV (in words)” value in data set [2] was “rapidly converted to TFV”. For the same molecule, the MRTINF in data set [2] (setting [7]) was found to be 73.2 min. For the same molecule, in data set [2] (setting [7]), the time of peak concentration (Tmax) was found to be 41.4 min. In addition, the solubility at 24 h is 1000 µg/mL (≈ 2010 µM) in data set [3] (aqueous solution of pH 2.0, simulated gastric fluid, aqueous solution pH 2.0 (hydrochloric acid), read-out: Solubility, H2O (pH 2.0)); 990 µg/mL (≈ 1990 µM) in data set [3] (aqueous solution of pH 7.4, aqueous buffer, aqueous solution pH 7.4 (10 mM potassium dihydrogen phosphate/NaOH), read-out: Solubility, H2O (pH 7.4)); 910 µg/mL (≈ 1830 µM) in data set [3] (fasted-state simulated intestinal fluid (FaSSIF), FaSSIF, read-out: Solubility, fasted-state simulated intestinal fluid (FaSSIF)). Also, the “Solubility (in words)” value in data set [3] (water and fasted-state intestinal fluid) is recorded as “good solubility”. In addition, the “Hygroscopicity (in words)” value in data set [4] (DVS) is listed as “little or no hygroscopicity”. The “Mass change caused by moisture absorption (%)” value (“Mass change caused … (%)” for short) in data set [4] (target humidity 0%) was found to be 0%; in data set [4] (target humidity 10%), 0.019%; in data set [4] (target humidity 20%, listed as crystalline form A of the fumarate salt), 0.04%; in data set [4] (target humidity 30%), 0.057%; in data set [4] (target humidity 40%), 0.078%; in data set [4] (target humidity 50%), 0.096%. The “Mass change caused … (%)” value in data set [4] (target humidity 60%) was 0.117%; in data set [4] (target humidity 70%) it was 0.137%; in data set [4] (target humidity 80%) it was “less than 0.2%”; in data set [4] (target humidity 80%, listed as crystalline form A of the fumarate salt), 0.158%; in data set [4] (target humidity 90%) it was “less than 0.2%”; in data set [4] (target humidity 90%, listed as crystalline form A of the fumarate salt) it was 0.192%.

`C[C@H](Cn1cnc2c(N)ncnc21)OC[P@@](=O)(NCCOCc1ccccc1)Oc1ccccc1` [listing 2 of 3 here]: in data set [4] (target humidity 20%), the “Mass change caused … (%)” value was found to be 0.2%.

`C[C@H](Cn1cnc2c(N)ncnc21)OC[P@@](=O)(NCCOCc1ccccc1)Oc1ccccc1` [listing 3 of 3 here]: in data set [2] (setting [8]), the AUCINF was 43.4 ng·h/mL, the AUClast was 41.7 ng·h/mL, the Cmax worked out at 77.5 ng/mL and the MRTINF is 33.6 min. For the same molecule, in data set [2] (setting [8]), the T1/2 is 17.4 min and the time of peak concentration (Tmax) was 18.6 min.

Turning to `CC(C)OC(=O)[C@H](C)N[P@](=O)(CO[C@H](C)Cn1cnc2c(N)ncnc21)Oc1ccccc1` [TAF, Tenofovir alafenamide], in data set [5] (patients), the ALT recovery rate result is “lower than 80%”. In addition, in data set [5] (share of patients), the “Patients in whom glomerular filtration rate decreased by more than 25%” value was “more than 10%” and the “Patients in whom spinal bone mineral density (BMD) decreased by more than 5%” value is reported as “more than 10%”.
